Assay results taken from US20230172940A1, “METHODS OF EXTENDING LIFESPAN BY ADMINISTERING FERROPTOSIS INHIBITORS” (COLLABORATIVE MEDICINAL DEVELOPMENT, LLC, priority 2020, published 2023).
“And” between values parts separate entries of the source, which are not always exact repeats. Equal entries are not always repeated. Structures can show the parent of a compound that is named as a salt. Marks after values point to notes of the source that are not given here.

Key:
Type in all cases: in vivo, Caenorhabditis elegans
C. elegans strain TJ1060 [1] = assay: Glutathione depletion: survival after diethyl maleate (DEM) exposure; details: for DEM toxicity (survival): 4-day old worms, 200 μM Lip-1 or 250 μM SIH from late L4
Description: Diethyl maleate (DEM; Sigma-Aldrich) was added to neat DMSO and added to molten NGM at 55° C. to a final concentration of 5^o 10^o 15 or 20 mM DEM and 0.5% v/v DMSO. Plates were seeded with OP50 and used within 24 hours. As above^o data was collected at 25 (±1) ° C. using the temperature sensitive-sterile strain TJ1060. A synchronous population was obtained by transferring egg-laying adults to fresh plates at 16° C. for 2-3 hours. The adults were removed and the plates with eggs then transferred to 25° C. to ensure sterility. After 48 hours at 25° C.^o when worms were at the late L4/young adult stage^o 25-35 nematodes were transferred to fresh plates containing either vehicle control^o 250 μM SIH^o or 200 μM Lip-1. Worms were aged at 25° C. for a further 4 days and then transferred to DEM plates. Survival^o determined by touch-provoked movement^o was scored at 24 and 48 hours after exposure to DEM.
Aging studies were also undertaken to determine changes with age of both survival after DEM exposure and basal glutathione levels. Initial populations were obtained as describe above^o with worms aged on standard NGA plates. Note that here we refer to the age of adults as determined by the number of days following the last larval molt and therefore reflects the number of days of adulthood^o not the time since egg.
For survival with increasing DEM dose response and protection by compounds (Lip-1 and SIH), data was plotted as fraction of animal alive with upper and lower 95% confidence interval, using the Wilson ‘score’ method using asymptotic variance and fitted with a sigmoidal curve (Prism). Pairwise comparisons of treated groups versus control at each concentration of DEM was determined using the N-1 chi-squared test.

total glutathione = assay: Quantification of total glutathione; details: for glutathione depletion induced by DEM: Day 4 animals; for age-dependent decrease in glutathione: treated from L4, assayed on Day 4 of adult life
Description: Measurement of total glutathione was based on established protocols and is based on a kinetic spectrophotometric assay using the reaction between GSH and 5^o5′-dithio-bis (2-nitrobenzoic acid) (DTNB) measured at 412 nm (Caito and Aschner^o 2015; Rahman et al.^o 2006). All reagents were freshly prepared prior to the assay and for each estimate 50 adults were collected in 200 μL of S-basal (Brenner^o 1974) in 1.7 ml microfuge tubes. Animals were washed twice in S-basal^o pelleted via centrifugation and total volume reduced to 20 μL. A 50 μL aliquot of Extraction Buffer was added then the samples were frozen in Liquid N2 and store at −80° C. until required. Extraction buffer consisted of 6 mg/mL 5-sulfosalicylic acid dehydrate^o 0.1% v/v Triton X-100 and Complete^o EDTA-free Proteinase inhibitor cocktail (Roche) in KPE buffer (0.1 M potassium phosphate buffer and 5 mM EDTA at pH 7.5).
Samples were homogenized with a Bioruptor Next Gen (Diagenode) bath sonicator^o set on HIGH and cooled to 4° C.^o using 10 cycles of 10 seconds ON and 10 seconds OFF. Supernatant was collected following a 14K×g spin at 4° C. Assays were performed in 96 well microplates (clear polystyrene^o flat-bottomed^o Greiner bio-one)^o in a total volume of 200 μL per well. To each well was added 50 μL of lysate supernatant^o 50 μL of milli-Q H2O and then 100 μL of GA buffer (NADPH 400 μM^o glutathione reductase 1 U/mL and 0.3 mM DTNB in KPE buffer diluent). Reactions were incubated for 1-2 min at room temperature and then absorbance measured at 412 nm for 10 min with 1 min interval using a Powerwave plate spectrophotometer (BioTek). The rate of change in absorbance per minute is linearly proportional to the total concentration of GSH. Total GSH in the samples was interpolated from using linear regression from a standard curve of known GSH concentrations (0 to 1 μM) run in tandem. In parallel^o the concentration of total protein per sample was also determined by a Bicinchoninic acid (BCA) assay (Pierce) using the manufacturers protocol. Total GSH estimates were then normalized for protein load thous accounting for any size differences between populations. Within experiment results are presented as relative glutathione levels^o where results are normalized to the mean of the starting population.

C. elegans strain TJ1060 [2] = assay: Lifespan determination; details: for average increase in median lifespan: 8 independent replicates, 200 μM Lip-1 or 250 μM SIH; for effect on survival curve: in vivo
Description: Lifespan was measured using established protocols. SIH was dissolved in neat dimethyl sulfoxide (DMSO; Sigma-Aldrich) then added to the molten NGM at 55° C. (to a final concentration of 250 μM SIH in 0.5% v/v DMSO). Lip-1 was dissolved in neat DMSO then added to the molten NGM at 55° C. (to a final concentration of 200 μM Lip-1 in 0.5% v/v DMSO). Media containing equivalent vehicle alone (0.5% v/v DMSO) was used for comparison. Standard overnight culture of the Escherichia coli (E. coli) strain OP50 was used as the food source.
Lifespan data was collected at 25 (±1) ° C. using the temperature sensitive-sterile strain TJ1060 [spe-9(hc88); fer-15(b26)]. A synchronous population was obtained by transferring egg-laying adults to fresh plates at 16° C. for 2-3 hours. The adults were removed and the plates with eggs then transferred to 25° C. to ensure sterility. After 48 hours at 25° C., when worms were at the late L4/young adult stage, 25-35 nematodes were transferred to fresh plates containing either vehicle control, 250 μM SIH, or 200 μM Lip-1. All plates were coded to allowing blinding of the experimenter to the treatment regime during scoring. Nematodes were scored for survival at one to three-day intervals and transferred to freshly prepared plates as needed (2-5 days).
It is well documented that differences are observed between independent measures of lifespan, with micro-environmental factors such as minor temperature fluctuations potentially resulting differences in median and maximum lifespan between replicates. After determining the optimal doses of 250 μM SIH and 200 μM Lip-1, respectively, cohorts of nematodes were compared in 8 independent replicates. As the number of worms measured is known to influence the likelihood of accurately observing differences in lifespan, the starting populations for all treatments within experiments were in excess of 70 individuals.

[3] = 10 mM DEM, 24-hour exposure, 4-day old adult worms
[4] = 250 μM SIH, days of adulthood at 25 (±1)° C, single replicate experiments 1-8
[5] = 200 μM Lip-1, days of adulthood at 25 (±1)° C, single replicate experiments 1-8

| SMILES | lethality (C. elegans strain TJ1060 [1]; [3]) | death of adult worms (C. elegans strain TJ1060 [1]; DEM≥1 mM, 4-day old adult worms, dose- and time-dependent) | depletion of glutathione (total glutathione; [3]) | DEM toxicity (survival) (C. elegans strain TJ1060 [1]) | % median Ý, Mean of 8 replicates (C. elegans strain TJ1060 [2]; 250 μM SIH) | max lifespan, Mean of 8 replicates (C. elegans strain TJ1060 [2]; 250 μM SIH, 25 (±1)° C) [days] | median lifespan, Mean of 8 replicates (C. elegans strain TJ1060 [2]; 250 μM SIH, 25 (±1)° C) [days] | max lifespan (C. elegans strain TJ1060 [2]; [4]) | median lifespan (C. elegans strain TJ1060 [2]; [4]) | % median Ý (median lifespan vs control) (C. elegans strain TJ1060 [2]; 250 μM SIH, single replicate experiments 1-8) | average increase in median lifespan (C. elegans strain TJ1060 [2]) [%] | effect on survival curve (C. elegans strain TJ1060 [2]) | glutathione depletion induced by DEM (total glutathione) | age-dependent decrease in glutathione (total glutathione) | % median Ý, Mean of 8 replicates (C. elegans strain TJ1060 [2]; 200 μM Lip-1) | max. lifespan, Mean of 8 replicates (C. elegans strain TJ1060 [2]; 200 μM Lip-1, 25 (±1)° C) [days] | median lifespan, Mean of 8 replicates (C. elegans strain TJ1060 [2]; 200 μM Lip-1, 25 (±1)° C) [days] | max. lifespan (C. elegans strain TJ1060 [2]; [5]) | median lifespan (C. elegans strain TJ1060 [2]; [5]) | % median Ý (median lifespan vs control) (C. elegans strain TJ1060 [2]; 200 μM Lip-1, single replicate experiments 1-8) |
| --- | --- | --- | --- | --- | --- | --- | --- | --- | --- | --- | --- | --- | --- | --- | --- | --- | --- | --- | --- | --- |
| CCOC(=O)/C=C\C(=O)OCC [DEM, Diethyl maleate] | ≈ 50% | induced death | ≈ 50% | – | – | – | – | – | – | – | – | – | – | – | – | – | – | – | – | – |
| O=C(N/N=C/c1ccccc1O)c1ccncc1 [SIH, Salicylaldehyde isonicotinoyl hydrazone] | – | – | – | rescued | +101% | 22 | 16 | 19 days (2×) and 23 days and 20 days and 18 days and 24 days and 29 days and 26 days | 14* days (4×) and 16* days (2×) and 17* days and 20* days | 100% and 75% (2×) and 78% and 129% and 56% and 143% and 150% | ~100 | extended mid-life with a squaring of the survival curve | mitigated the glutathione depletion induced by DEM | prevented the age-dependent decrease in glutathione | – | – | – | – | – | – |
| Clc1cccc(CNC2=Nc3ccccc3NC23CCNCC3)c1 [Lip-1, N-[(3-chlorophenyl)methyl]-spiro[piperidine-4,2′(1′H)-quinoxalin]-3′-amine] | – | – | – | rescued | – | – | – | – | – | – | ~70 | primarily altered late life survival | did not prevent the fall in glutathione | did not prevent the fall in glutathione | +72% | 25 | 13 | 25 days (2×) and 20 days and 24 days (2×) and 26 days (2×) and 27 days | 13* days and 11† days and 14* days (4×) and 12* days and 15* days | 86% and 38% and 56% (2×) and 100% and 50% and 114% and 75% |
